Results: patent US20100160176A1, “RAT GENE […] OF DRUG TRANSPORTERS, CYTOCHROME P450s, TRANSFERASES AND NUCLEAR […] FOR PREDICTING DRUG EFFECTS” (NOAB BIOD[…]., priority 2008, published 2010)
Where two headings read alike, the source gives them in different places.

Legend:
[1] = tested on: ABCD2 gene expression; experiment: Rat DTEx microarray gene expression profiling in drug-treated female rat primary hepatocytes (FIG. 109): ABCD2; assay type: in vitro ADME
Protocol: (§1) Images were analysed using QuantArray software (GSI Lumonics Inc.).

[2] = tested on: ABCC3 gene expression; experiment: Rat DTEx microarray gene expression profiling in drug-treated female rat primary hepatocytes (FIG. 109): ABCC3; assay type: in vitro ADME
Protocol: as §1

[3] = tested on: CYP3A1 gene expression; experiment: Rat DTEx microarray gene expression profiling in drug-treated female rat primary hepatocytes (FIG. 109): CYP3A1; conditions: female rat primary hepatocytes treated with the drug
Excerpt: The total RNA component of the nucleic acid lysate was isolated according to the manufacturer's instructions.

[4] = female rat primary hepatocytes treated with the drug, FIG. 109

Row | Structure (SMILES) | effect on ABCD2 gene expression (normalized fluorescence intensity dendrogram plot) [1] | effect on ABCC3 gene expression (normalized fluorescence intensity dendrogram plot) [2] | effect on ABCD2 gene expression (normalized fluorescence intensity dendrogram plot) [1, 4] | effect on ABCC3 gene expression (normalized fluorescence intensity dendrogram plot) [2, 4] | effect on CYP3A1 gene expression (normalized fluorescence intensity dendrogram plot) [3]
1 | C[C@@H]1C[C@H]2[C@@H]3CCC4=CC(=O)C=C[C@]4(C)[C@@]3(F)[C@@H](O)C[C@]2(C)[C@@]1(O)C(=O)CO [DEX, dexamethasone] | suppress | induces gene expression |  |  | 
2 | CC(=O)[C@H]1[C@H](C#N)C[C@H]2[C@@H]3CC=C4C[C@@H](O)CC[C@]4(C)[C@H]3CC[C@@]21C [PCN] |  |  | suppress | suppresses gene expression | induce
